# Measurements: ChEMBL document CHEMBL1201862, “PubChem BioAssay data set” (2004)
# Activity calls are given as the source filed them.
# How the values were obtained:
# Large T antigen = Large T antigen (Simian virus 40, UniProt P03070); assay type: functional, Betapolyomavirus macacae;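 note: Confirmatory-stage PubChem screen for compounds that inhibit SV40 T antigen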
# [1] = molecular target: T1, Ubiquitin-conjugating enzyme E2 N (Homo sapiens, UniProt P61088); assay type: functional;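 note: Dose-response confirmation in a TR-FRET assay detecting UBC13-driven polyubiquitin chain formation, inhibition measured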
# T1 sequence (P61088 whole entry): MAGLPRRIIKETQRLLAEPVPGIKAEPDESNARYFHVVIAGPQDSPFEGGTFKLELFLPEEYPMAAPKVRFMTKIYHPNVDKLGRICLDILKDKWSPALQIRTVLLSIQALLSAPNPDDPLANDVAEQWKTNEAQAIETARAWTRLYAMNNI
# Protein skinhead-1 = molecular target: T2, Protein skinhead-1 (Caenorhabditis elegans, UniProt P34707); assay type: functional
# T2 sequence (P34707 whole entry): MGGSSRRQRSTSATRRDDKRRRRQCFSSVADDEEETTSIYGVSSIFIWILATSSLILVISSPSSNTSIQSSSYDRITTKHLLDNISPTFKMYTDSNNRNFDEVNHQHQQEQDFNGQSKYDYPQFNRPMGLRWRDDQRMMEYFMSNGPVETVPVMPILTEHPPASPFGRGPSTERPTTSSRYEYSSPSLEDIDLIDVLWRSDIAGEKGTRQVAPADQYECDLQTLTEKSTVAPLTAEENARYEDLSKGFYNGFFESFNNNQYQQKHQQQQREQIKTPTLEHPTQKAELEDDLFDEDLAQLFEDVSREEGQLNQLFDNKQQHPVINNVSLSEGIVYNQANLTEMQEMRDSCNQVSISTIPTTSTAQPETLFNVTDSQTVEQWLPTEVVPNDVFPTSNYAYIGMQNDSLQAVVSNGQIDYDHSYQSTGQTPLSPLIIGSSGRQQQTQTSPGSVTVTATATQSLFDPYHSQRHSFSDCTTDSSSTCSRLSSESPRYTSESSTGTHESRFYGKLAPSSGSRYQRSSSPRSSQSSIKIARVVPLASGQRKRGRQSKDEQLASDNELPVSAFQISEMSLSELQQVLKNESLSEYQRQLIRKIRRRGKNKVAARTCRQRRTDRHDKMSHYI
# [2] = Luminescence Cell-Based Dose Confirmation HTS to Identify Activators of 5'UTR Stem-Loop Driven Alpha-Synuclein mRNA Translation in H4 Neuroglioblastoma Cells. [Related pubchem assays: 1829 (Project Summary), 1814 (Primary HTS)]; assay type: functional
# [3] = Luminescence Cell-Based Dose Response HTS to Identify Activators of Luciferase Translation or Activity in H4 […] Cells. [Related pubchem assays: 1829 (Project Summary), 1814 (Primary HTS)]; assay type: functional
# H4 = test: Luminescence Cell-Based Dose Response HTS to Identify Activators of 5'UTR Stem-Loop Driven Prion Protein mRNA Translation in H4 Neuroglioblastoma Cells. [Related pubchem assays: 1829 (Project Summary), 1814 (Primary HTS)]; assay type: functional; details: Homo sapiens
# [4] = microbe, parasite or virus in culture; assay type: functional; details: Mycobacterium tuberculosis
# [5] = molecular target: T3, Carboxy-terminal domain RNA polymerase II polypeptide A small phosphatase 1 (Homo sapiens, UniProt Q9GZU7); test: inhibitors of CTDSP1, concentration-response testing, biochemical assay, absorbance-based, actives from ultra-high-throughput screening (AID 540297); assay type: functional
# T3 sequence (Q9GZU7 whole entry): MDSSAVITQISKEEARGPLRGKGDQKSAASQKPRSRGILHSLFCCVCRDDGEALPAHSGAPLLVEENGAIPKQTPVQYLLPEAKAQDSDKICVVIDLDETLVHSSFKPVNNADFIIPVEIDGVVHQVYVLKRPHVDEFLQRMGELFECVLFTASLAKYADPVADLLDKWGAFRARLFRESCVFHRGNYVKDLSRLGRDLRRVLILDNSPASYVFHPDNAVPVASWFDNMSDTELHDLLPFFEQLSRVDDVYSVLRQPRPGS
# [6] = molecular target: T4, Heat shock factor protein 1 (Mus musculus, UniProt P38532); test: HSF1 potentiators in luciferase reporter cells, confirmation, cell-based, NIH3T3, luminescence, dose retest (AID 435004); assay type: functional;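 note: stress induced by proteasome inhibitor MG132 added 30 min after compound; luciferase reporter driven by HSF1 response element in NIH3T3 cells; actives raise luminescence as potentiators of the MG132 stress response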
# T4 sequence (P38532 whole entry): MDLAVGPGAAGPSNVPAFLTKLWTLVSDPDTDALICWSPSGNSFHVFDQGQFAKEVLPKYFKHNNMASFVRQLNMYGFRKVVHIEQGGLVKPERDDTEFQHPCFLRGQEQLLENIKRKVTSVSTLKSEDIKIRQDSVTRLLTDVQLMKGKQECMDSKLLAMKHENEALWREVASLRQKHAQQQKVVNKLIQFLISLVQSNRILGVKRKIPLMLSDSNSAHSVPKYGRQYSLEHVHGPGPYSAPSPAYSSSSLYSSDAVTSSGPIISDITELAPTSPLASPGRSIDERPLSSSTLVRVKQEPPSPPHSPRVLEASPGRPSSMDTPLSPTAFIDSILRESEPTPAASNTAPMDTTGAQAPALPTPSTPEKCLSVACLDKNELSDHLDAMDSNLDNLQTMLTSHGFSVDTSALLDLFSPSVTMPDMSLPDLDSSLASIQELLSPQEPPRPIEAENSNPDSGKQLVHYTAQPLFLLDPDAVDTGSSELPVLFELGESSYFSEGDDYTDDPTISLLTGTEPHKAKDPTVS
# [7] = Shn3 3'UTR reporter inhibitors, dose response, cell-based, Clone20 osteoblasts, firefly luciferase, cherry-picked (AID 624132); assay type: functional;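 note: firefly luciferase luminescence from reporter carrying the Shn3 3'UTR in osteoblasts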
# [8] = molecular target: FAD-linked sulfhydryl oxidase ALR (Homo sapiens, UniProt P55789); test: inhibitors of human ALR sulfhydryl oxidase, dose response, biochemical, H2O2 detection, luminescence, cherry-pick (AID 493248)
# Cytochrome P450 1A2 = molecular target: T5, Cytochrome P450 1A2 (Homo sapiens, UniProt P05177);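 note: PubChem cytochrome P450 panel assay, CYP1A2 panel member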
# T5 sequence (P05177 whole entry): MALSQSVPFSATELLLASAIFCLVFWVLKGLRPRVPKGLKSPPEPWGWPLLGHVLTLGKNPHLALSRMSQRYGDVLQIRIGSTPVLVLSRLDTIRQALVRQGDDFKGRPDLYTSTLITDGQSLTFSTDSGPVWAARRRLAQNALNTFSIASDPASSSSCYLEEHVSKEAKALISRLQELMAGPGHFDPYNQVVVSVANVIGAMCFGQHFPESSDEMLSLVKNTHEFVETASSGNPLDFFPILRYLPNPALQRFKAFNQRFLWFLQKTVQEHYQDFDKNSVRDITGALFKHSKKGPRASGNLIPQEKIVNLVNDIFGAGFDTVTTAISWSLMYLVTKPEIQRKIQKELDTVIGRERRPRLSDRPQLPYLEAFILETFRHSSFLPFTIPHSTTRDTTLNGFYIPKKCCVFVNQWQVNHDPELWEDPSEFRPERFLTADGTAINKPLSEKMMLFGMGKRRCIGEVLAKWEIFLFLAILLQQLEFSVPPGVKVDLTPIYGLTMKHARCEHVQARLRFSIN
# cells = assay type: functional
# [9] = inhibitors of intracellular T. cruzi replication, confirmation, NIH3T3 host cells, beta-gal luminescence (AID 2044); assay type: functional, cell-based;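 note: intracellular parasites grown in NIH/3T3 mouse fibroblasts as host cells; luminescent beta-galactosidase reporter signal from transgenic T. cruzi replicating inside host cells; inhibitors lower the luminescence signal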
# [10] = cytotoxicity toward NIH3T3 fibroblasts, dose response, counter-screen, cell-based, ATP luminescence, mouse fibroblasts (AID 2010); assay type: functional;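 note: cells exposed to compound for about 90 hours before reading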
# [11] = growth suppression of PTEN-null colon cells, dose response, cell-based, HCT116 PTEN knockout (AID 1047); assay type: functional;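 note: HCT116 colon tumor cells with PTEN knocked out; cells exposed to compound for 60 hours before readout; potency for loss of cell viability measured by luminescence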
# [12] = growth suppression of beta-catenin-knockout colon cells, dose response, cell-based, HCT116, human colon tumor (AID 1045); assay type: functional;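 note: HCT116 colon tumor cells with beta catenin knocked out; cells exposed to compound for 60 hours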
# [13] = molecular target: T6, Rac GTPase-activating protein 1 (Homo sapiens, UniProt Q9H0H5); test: MgcRacGAP GTPase-activating activity inhibitors, confirmation, biochemical, ADP Hunter fluorescence, primary and confirmatory (AID 624330); assay type: functional
# T6 sequence (Q9H0H5 whole entry): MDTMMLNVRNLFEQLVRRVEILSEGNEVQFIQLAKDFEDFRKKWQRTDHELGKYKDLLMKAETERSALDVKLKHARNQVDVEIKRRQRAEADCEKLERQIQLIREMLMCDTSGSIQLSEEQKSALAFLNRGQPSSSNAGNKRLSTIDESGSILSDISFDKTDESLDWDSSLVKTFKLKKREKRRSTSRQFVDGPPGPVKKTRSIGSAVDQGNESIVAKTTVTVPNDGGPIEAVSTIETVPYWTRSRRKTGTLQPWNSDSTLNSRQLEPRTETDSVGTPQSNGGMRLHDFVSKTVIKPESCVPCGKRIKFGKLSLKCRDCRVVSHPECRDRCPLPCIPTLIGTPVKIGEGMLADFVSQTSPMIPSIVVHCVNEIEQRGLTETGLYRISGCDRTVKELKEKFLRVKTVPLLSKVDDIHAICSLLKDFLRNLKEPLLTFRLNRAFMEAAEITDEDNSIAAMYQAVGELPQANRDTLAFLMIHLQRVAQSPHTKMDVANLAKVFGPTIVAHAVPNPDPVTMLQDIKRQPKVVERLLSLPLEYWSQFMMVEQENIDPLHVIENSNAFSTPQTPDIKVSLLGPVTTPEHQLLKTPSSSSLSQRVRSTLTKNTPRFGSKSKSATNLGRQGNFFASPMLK
# Large T antigen, sequence (P03070 whole entry): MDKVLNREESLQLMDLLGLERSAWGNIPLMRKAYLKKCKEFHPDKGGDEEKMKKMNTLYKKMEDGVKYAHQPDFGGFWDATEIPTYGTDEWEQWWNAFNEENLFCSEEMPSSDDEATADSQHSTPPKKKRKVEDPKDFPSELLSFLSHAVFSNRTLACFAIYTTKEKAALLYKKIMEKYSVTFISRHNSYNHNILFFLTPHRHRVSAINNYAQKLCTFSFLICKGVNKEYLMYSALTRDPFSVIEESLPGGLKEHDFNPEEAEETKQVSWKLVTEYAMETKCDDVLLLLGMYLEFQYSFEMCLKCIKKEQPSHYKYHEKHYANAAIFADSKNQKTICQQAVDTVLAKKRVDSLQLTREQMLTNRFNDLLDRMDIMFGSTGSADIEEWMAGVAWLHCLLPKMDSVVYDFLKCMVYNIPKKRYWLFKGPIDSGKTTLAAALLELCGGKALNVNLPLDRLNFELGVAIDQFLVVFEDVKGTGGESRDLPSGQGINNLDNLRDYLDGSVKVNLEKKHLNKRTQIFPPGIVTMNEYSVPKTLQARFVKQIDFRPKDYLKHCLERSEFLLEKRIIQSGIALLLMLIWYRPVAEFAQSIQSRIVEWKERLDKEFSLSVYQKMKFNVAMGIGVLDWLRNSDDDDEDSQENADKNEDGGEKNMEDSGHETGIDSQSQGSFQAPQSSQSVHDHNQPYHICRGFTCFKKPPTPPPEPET
# FAD-linked sulfhydryl oxidase ALR, sequence (P55789 whole entry): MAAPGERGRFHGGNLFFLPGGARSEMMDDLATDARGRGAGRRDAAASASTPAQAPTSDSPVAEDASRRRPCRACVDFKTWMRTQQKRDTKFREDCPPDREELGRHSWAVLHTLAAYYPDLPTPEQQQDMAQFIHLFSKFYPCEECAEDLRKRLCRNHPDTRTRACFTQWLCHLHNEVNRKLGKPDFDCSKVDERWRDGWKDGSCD
structure (smiles),measurement,setting,value
COc1ccccc1NC(=O)Oc1ccc(NC(=O)c2ccco2)cc1,IC50,Large T antigen,22.9 µM (active)
C=CCn1c(SCC(=O)N(CC)C2CCS(=O)(=O)C2)nnc1-c1ccccc1 (configuration not stated),IC50,[1],> 20 µM (inactive)
Cc1ccc(N2C(=O)NC(=O)/C(=C/Nc3ccc(S(=O)(=O)N(C)C)cc3)C2=O)cc1,IC50,Protein skinhead-1,> 100 µM (inactive)
COc1ccc(-c2nc3c(n2O)CCc2c-3no[n+]2[O-])cc1,EC50,[2],> 120 µM (not active)
same,EC50,[3],22.2 µM (active)
same,EC50,H4,15 µM (active)
CC1(C)c2[nH]c3ccccc3c2C[C@@H]2C(=O)N(Cc3ccccc3F)C(=O)N21,CC50,[4],> 40 µM (active)
O=C(CCCCCN1C(=O)c2cccc3cccc(c23)C1=O)NCc1ccco1,IC50,[1],> 20 µM (inactive)
Cc1ccc(C(=O)Nc2nc(-c3ccc(F)cc3)cs2)o1,IC50,Protein skinhead-1,> 100 µM (inactive)
COc1ccccc1C(=O)Nc1c2c(nn1-c1cccc(C)c1C)CS(=O)(=O)C2,IC50,[1],> 20 µM (inactive)
same,IC50,[5],10.1 µM (active)
Cc1ncc([N+](=O)[O-])n1CCOC(=O)c1cc(Cl)cc(Cl)c1N,EC50,[6],> 260 µM (inactive)
same,IC50,[5],6.77 µM (active)
COC(=O)c1ccccc1N=C(S)N(Cc1ccc2c(c1)OCO2)Cc1cc2cc(OC)ccc2nc1O,AC50,[7],10.4 µM (active)
N#CC1=C2SCN(c3ccccc3)CN2C(=O)CC1c1ccccc1Cl (configuration not stated),IC50,Large T antigen,36.3 µM (active)
O=C(NNc1nc2ccccc2s1)c1ccccc1F,CC50,[4],> 40 µM (active)
same,AC50,[8],14.2 µM (active)
same,AC50,Cytochrome P450 1A2,14.1 µM (inconclusive)
Cc1cc(OCc2cccc(Cl)c2)c(C)cc1CN1CCOCC1,IC50,Protein skinhead-1,6.33 µM (active)
CCOCC(=O)Nc1ccc(C)c(Cl)c1,IC50,cells,37.1 µM (active)
same,IC50,Protein skinhead-1,> 100 µM (inactive)
Cc1ccc(NC(=O)c2cnn(-c3ccccc3)c2C)c(C)c1,EC50,[2],0.463 µM (active)
same,EC50,[3],37.9 µM (active)
same,EC50,H4,> 120 µM (not active)
c1ccc(-c2ccc(OCCCNC3CCCC3)cc2)cc1,EC50,[9],1.03 µM (active)
same,EC50,[10],> 60 µM (not active)
same,IC50,Protein skinhead-1,20.8 µM (active)
CCCNC(=O)c1ccc2snnc2c1,IC50,Protein skinhead-1,> 100 µM (inactive)
O=c1nc2n(c(O)c1C(c1c(O)nc3n(c1=O)CCS3)c1cccc3ccccc13)CCS2 (configuration not stated),IC50,Large T antigen,> 100 µM (active)
O=C(CCn1c(=S)[nH]c2ccccc2c1=O)NCCCN1CCCC1=O,IC50,Protein skinhead-1,> 100 µM (inactive)
NC1=NC[C@H](c2ccccc2)N1CCc1cc(C(F)(F)F)cc(C(F)(F)F)c1,IC50,[1],> 20 µM (inactive)
O=c1cc(N2CCN(c3ccc(F)cc3)CC2)[nH]c(=O)n1C1CCCCC1,EC50,[2],> 120 µM (not active)
same,EC50,[3],17.3 µM (inconclusive)
same,EC50,H4,26.6 µM (active)
Cc1ccccc1NC(=O)c1cc(N)ccc1N1CCCCC1,IC50,Large T antigen,18.9 µM (active)
COc1cccc(NCc2cc(=O)oc3cc(-c4ccccc4)c(O)cc23)c1,EC50,[2],21.8 µM (active)
same,EC50,[3],15.2 µM (active)
same,EC50,H4,20 µM (active)
C=C(C)CSc1cc(C)c(C#N)c2nc3ccccc3n12,CC50,[4],10.1 µM (active)
Fc1ccc(-c2nc3ccc(Br)cn3c2Cc2ccccc2C(F)(F)F)cc1,IC50,Protein skinhead-1,> 100 µM (inactive)
O=C(N/N=C/c1ccc(Cl)cc1)c1cc2c(s1)-c1ccccc1CC2,EC50,[11],9.47 µM (active)
same,EC50,[12],10.5 µM (active)
same,IC50,[5],20 µM (active)
CCNC(=O)C1(C)CCCN1C(=O)c1ccc(C#N)cc1 (configuration not stated),IC50,Protein skinhead-1,> 100 µM (inactive)
COc1cc(/C=N\NC(=O)C2CC3C=CC2C3)ccc1O (configuration not stated),IC50,Large T antigen,13.3 µM (active)
same,IC50,[13],23.4 µM (active)
O=C1/C(=C\c2ccncc2)CCc2ccccc21,CC50,[4],> 40 µM (active)
